These results are taken from patent US9993478B2, “1-pyrazolyl-3-(4-((2-anilinopyrimidin-4-yl) oxy) napththalen-1-yl) ureas as P38 MAP knase inhibitors” (Respivert Ltd., priority 2011, dated 2018).

The subject of one data set is d-U937 cells. Put plainly: Cell viability: MTT assay. Type of data set: cell-based, human. The following applies: 1 μg/mL. The gist of the method: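 Differentiated U937 cells exposed to compound at 1 or 10 μg/mL final, either 4 h in 5% FCS RPMI1640 or 24 h in 10% FCS RPMI1640. After medium replacement, MTT added 1 h, formazan dissolved in DMSO, A550 read. % viability loss vs 0.5% DMSO vehicle; apparent viability gain shown as negative %.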
On the technique in general: Tetrazolium dyes change colour on reduction, which living cells bring about.

Another data set has as its system A/J mice. Description: Cigarette smoke model. Type of data set: in vivo. The following applies: tobacco smoke. The method, then:
A/J mice (males, 5 weeks old) were exposed to cigarette smoke (4% cigarette smoke, diluted with air) for 30 min/day for 11 days using a Tobacco Smoke Inhalation Experiment System for small animals (Model SIS-CS; Sibata Scientific Technology, Tokyo, Japan). Test substances were administered intra-nasally (35 μL of solution in 50% DMSO/PBS) once daily for 3 days after the final cigarette smoke exposure. At 12 hr after the last dosing, each of the animals was anesthetized, the trachea cannulated and bronchoalveolar lavage fluid (BALF) was collected. The numbers of alveolar macrophages and neutrophils were determined by FACS analysis (EPICS® ALTRA II, Beckman Coulter, Inc., Fullerton, Calif., USA) using anti-mouse MOMA2 antibody (macrophage) or anti-mouse 7/4 antibody (neutrophil). BALF was centrifuged and the supernatant was collected. The level of keratinocyte chemoattractant (KC; CXCL1) in BALF was quantitated using a Quentikine® mouse KC ELISA kit (R&D systems, Inc., Minneapolis, Minn., USA).

For the compound `Cc1ccc(-n2nc(C(C)(C)C)cc2NC(=O)Nc2ccc(Oc3ccnc(Nc4ccccc4)n3)c3ccccc23)cc1` [Example 1, 1-(3-(tert-Butyl)-1-(p-tolyl)-1H-pyrazol-5-yl)-3-(4-(2-(phenylamino)pyrimidin-4-yloxy)naphthalen-1-yl)urea], in the data set with d-U937 cells (4 h), the “MTT Assay Cell viability at time point in d-U937 Cells 4 h” value is “−ve (−ve and +ve indicate the value is below and above respectively, the no significant effect threshold defined as 30% inhibition at 1 μg/mL at the time point indicated)”. The “MTT Assay Cell viability at time point in d-U937 Cells 24 h” value in the data set on d-U937 cells (24 h) was “−ve (−ve and +ve indicate the value is below and above respectively, the no significant effect threshold defined as 30% inhibition at 1 μg/mL at the time point indicated)”. Also, the “Macrophage numbers in BALF % inhibition” value was 11% in the data set with A/J mice (0.32 μg/mL intra-nasal), 28% in the data set with A/J mice (1.6 μg/mL intra-nasal), 43% in the data set with A/J mice (8.0 μg/mL intra-nasal) and 64% with A/J mice (40 μg/mL intra-nasal). For the same compound, the “Neutrophil numbers in BALF % inhibition” value with A/J mice (0.32 μg/mL intra-nasal) came to 12%; in the data set with A/J mice (1.6 μg/mL intra-nasal) it was 29%; in the data set with A/J mice (8.0 μg/mL intra-nasal), 41%; with A/J mice (40 μg/mL intra-nasal), 52%.
